The results in this text go back to the NIST ThermoML archive (doi:10.1016/j.fluid.2016.01.035).

The conditions of data set [1]: for vapor or sublimation pressure: Liquid, Transpiration method.
Data set [2] can be described thus: Molar enthalpy of transition or fusion. The following applies: Crystal; DSC.
The nature of data set [3]: molar enthalpy of vaporization or sublimation. The note with it: 298.15 K; Crystal; TGA.

± gives the expanded uncertainty stated by the source.

The term vapor or sublimation pressure denotes the pressure of vapour in equilibrium with the condensed phase.

In the case of `COc1cc(C=CC(=O)O)ccc1O` [4-hydroxy-3-methoxycinnamic acid], in data set [1] (Crystal, DTA), the Normal melting temperature was 172.8 ± 0.5 °C. For the same compound, in data set [2], the “Molar enthalpy of transition or fusion” value was determined as 8.29 ± 0.191 kcal/mol. Also, the molar enthalpy in data set [3] turned out to be 32.4 ± 0.478 kcal/mol.

Take `COC(=O)C=Cc1ccc(O)c(OC)c1` [methyl 3-(4-hydroxy-3-methoxyphenyl)-2-propenoate]: the “vapor or sublimation pressure” value in data set [1] (340.2 K) is listed as 9.7e-05 ± 4e-06 kPa; in data set [1] (343.2 K) it was 0.000128 ± 6e-06 kPa; in data set [1] (348.2 K) it was 0.00021 ± 9e-06 kPa; in data set [1] (353.1 K) it was 0.000324 ± 1.4e-05 kPa; in data set [1] (358.2 K), 0.000513 ± 2.2e-05 kPa; in data set [1] (363.2 K) it was 0.000769 ± 3.3e-05 kPa. Moreover, the “vapor or sublimation pressure” value in data set [1] (368.1 K) is on record as 0.00117 ± 5e-05 kPa; in data set [1] (370.2 K) it was 0.0014 ± 6e-05 kPa; in data set [1] (373.2 K), 0.00179 ± 8e-05 kPa; in data set [1] (376.2 K), 0.00229 ± 0.0001 kPa. Also, the “Molar enthalpy of transition or fusion” value in data set [2] amounted to 5.62 ± 0.55 kcal/mol.
